Results reported in publication PMC5100903, “Tissue Kallikrein Inhibitors Based on the Sunflower Trypsin Inhibitor Scaffold – A Potential Therapeutic Intervention for Skin Diseases” (PLoS ONE, 2016).
Read-outs that look alike come from different tables or passages of the source. Positions of bridges follow the written chain, without caps; N, C: chain ends. Residues, ends and D or L forms follow the SMILES beside them.

Key:
Experiment in all cases: biochemical
[1] = target: T1, Matriptase (catalytic domain only) (Homo sapiens, UniProt Q9Y5Y6)
T1 construct: matriptase (catalytic domain only, >90% purity by SDS-PAGE); purchased R&D
T1 sequence (Q9Y5Y6 615-854 limits assumed): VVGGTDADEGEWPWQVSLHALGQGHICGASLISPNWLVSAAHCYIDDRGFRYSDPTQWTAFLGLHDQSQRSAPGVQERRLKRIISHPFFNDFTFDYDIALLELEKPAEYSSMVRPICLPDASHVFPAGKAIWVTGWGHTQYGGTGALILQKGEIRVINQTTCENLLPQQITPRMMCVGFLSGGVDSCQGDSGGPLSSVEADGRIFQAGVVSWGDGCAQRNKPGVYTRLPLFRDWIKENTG
Procedure: (§1) All assays were performed on 96-well microplates and the change in relative fluorescence unit (RFU) was measured by fluorescence spectrometer (BMG FLUOstar OPTIMA). The excitation/emission wavelength was 360/460 nm for the substrate Boc-VPR-AMC (Bachem AG, Hauptstrasse, Switzerland) and MeOSuc-AAPV-AMC (Bachem AG, Hauptstrasse, Switzerland) and 485/520 nm for BODIPY_FL casein (Invitrogen, Carlsbad, US). Stock solution of Boc-VPR-AMC was prepared by dissolving the solid in dimethyl sulfoxide to 100 mM and 10 mM for MeOSuc-AAPV. For BODIPY_FL casein, it was reconstituted to 1 mg/mL in 1xPBS. […] The % of inhibition was calculated by the following equation: % of Inhibition=(1−(Sample RFU − Min RFU)/(Max RFU − Min RFU)) X100
(§2) Each inhibition curves were done in triplicates with a minimum of five concentration points fitted. Fitting of each curve was done using SigmaPlot with the Four Parameter Logistic Function and the IC50 calculated. […] All tested compounds were reconstituted to stock solution in water.
(§3) The diluent for all the tested compounds, protein and substrate (except KLK7, which was done with 10 mM Tris pH 7.8) was 1xPBS pH 8.0–8.9. The serially diluted ligands were mixed with diluted bovine trypsin (Sigma, Dorset, U.K.) or activated KLK14, or KLK5, or activated KLK8 or matriptase (catalytic domain only, >90% purity by SDS-PAGE, endotoxin <0.1 ng/μg, R&D, Minneapolis, U.S.) or activated KLK7 or human neutrophil elastase (purified from human plasma, >95% purity by SDS-PAGE, Abcam, Cambridge, U.K.) or porcine pancreatic elastase 1 (Sigma, Dorset, U.K.) or human plasma kallikrein or human plasma plasmin (purified from human plasma, ≥95% purity by SDS-PAGE, BioVision, Milpitas, U.S.). 20μL of the ligand-protein mixture was pipetted to a well of a 96-well microplate in triplicates. The reaction was started by addition of 90–100 μL of the diluted substrate solution (contained 0.05% v/v Brij35) and the plate incubated at 25°C but 37°C for KLK7. RFU reading for each well was taken 6 minutes (trypsin) or 15 minutes (KLK14, KLK5, KLK8, matriptase, human neutrophil elastase, porcine pancreatic elastase 1, plasma kallikrein and plasmin) or 20 hours (KLK7) after substrate addition.

Human Plasma Plasmin = target: T2, Human Plasma Plasmin (Homo sapiens, UniProt P00747)
T2 construct: human plasma plasmin (purified from human plasma); purchased BioVision; host or cells: human plasma
Procedure: as §1, §2, §3

KLK5 = target: T3, KLK5 (Homo sapiens, UniProt Q9Y337); assay type: binding; settings: for Stoichiometry (N) / ΔH / ΔS / ΔG / Ka: ITC; for ΔG: 25°C; for Ka: 25°C (Table S2, unit not given)
T3 construct: purchased Novoprotein
T3 sequence (Q9Y337 23-293): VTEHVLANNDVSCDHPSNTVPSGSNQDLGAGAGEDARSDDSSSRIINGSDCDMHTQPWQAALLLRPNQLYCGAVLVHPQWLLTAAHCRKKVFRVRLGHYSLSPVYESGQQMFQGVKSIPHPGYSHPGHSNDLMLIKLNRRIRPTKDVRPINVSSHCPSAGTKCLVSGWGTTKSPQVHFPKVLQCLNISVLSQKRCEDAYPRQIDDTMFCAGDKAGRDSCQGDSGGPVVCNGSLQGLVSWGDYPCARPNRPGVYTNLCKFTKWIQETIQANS
Procedure: ITC experiments were performed on a MicroCal iTC200 calorimeter (GE Healthcare, Uppsala, Sweden) at 298.15 K with a stirring speed of 750 revolutions per minute. Concentrated (450 μM) ligand solutions were injected into protein (KLK5) solution (20 μM, 280 μL sample volume) in the sample cell. Injection volumes were 2 μL for I10H and Analogue 1 and 1 μL for Analogue 2 and 6 with a spacing of 120 seconds between each injection. Concentrations of ligands were determined by dried weight and they were reconstituted to 10 mM stock in H2O. Concentration of KLK5 was determined by UV280 calculated with an extinction coefficient of 38680 and molecular weight of 32KDa (including weight of glycosylation). The protein solution were buffer exchanged using spin column to 1xPBS (137 mM NaCl, 2.7 mM KCl, 4.3 mM Na2HPO4, 1.47 mM KH2PO4 pH 8.0) or 20 mM MES buffer (with 150 mM NaCl, pH 5.5). Ligand stocks were diluted in those buffers (4.5 μL + 95.5 μL buffer), and then equal v/v % of H2O was added to the protein solution after buffer exchange to ensure matching buffer contents. Heat of dilution was undetectable in control experiments. Data were analyzed using OriginLab version 7.0.

KLK7 = target: T4, KLK7 (Homo sapiens, UniProt P49862); settings: for inhibition at 11 µM: read-out: % inhibition of KLK7
T4 construct: purchased R&D
Procedure: as §1, §2
Recombinant KLK7, KLK8 and KLK14 (>95% purity by SDS-PAGE, endotoxin <0.1 ng/μg, R&D, Minneapolis, U.S.) stocks were diluted with 1xPBS to a concentration of 120 nM. KLK7 and KLK14 were activated by addition of 1 mM f/c CaCl2 (Sigma, Dorset, U.K.), 0.05% v/v Brij35 (Sigma, Dorset, U.K.), 20 nM f/c thermolysin (Sigma, Dorset, U.K.) and incubated at 37°C for 1 hour. The reaction was stopped by addition of ethylenediaminetetraacetic acid (EDTA, 50 mM f/c). KLK8 was activated by addition of 11 nM f/c lysyl endopeptidase (Santa Cruz Biotechnology, Dallas, U.S.) and incubation at 37°C for 0.5 hour. […] The RFU value reached by the thermolysin control was used as the minimum RFU for calculating the % of inhibition for KLK7.
as §3

[2] = enzyme 24 nM, Boc-VPR-AMC 42 μM, 25°C, 15 minutes
[3] = at 11 μM, enzyme 10 nM, BODIPY_FL casein 6.5 μg/mL, 37°C, 20 hours

T2 sequence (P00747 581-810 limits assumed): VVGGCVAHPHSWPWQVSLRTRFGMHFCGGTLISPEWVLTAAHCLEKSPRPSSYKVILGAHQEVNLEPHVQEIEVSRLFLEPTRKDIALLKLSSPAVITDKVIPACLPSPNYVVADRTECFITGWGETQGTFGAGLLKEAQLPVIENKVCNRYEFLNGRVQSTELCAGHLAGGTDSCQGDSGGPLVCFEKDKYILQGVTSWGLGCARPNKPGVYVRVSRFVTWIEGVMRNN
T2 sequence (P00747 98-580 partner limits assumed): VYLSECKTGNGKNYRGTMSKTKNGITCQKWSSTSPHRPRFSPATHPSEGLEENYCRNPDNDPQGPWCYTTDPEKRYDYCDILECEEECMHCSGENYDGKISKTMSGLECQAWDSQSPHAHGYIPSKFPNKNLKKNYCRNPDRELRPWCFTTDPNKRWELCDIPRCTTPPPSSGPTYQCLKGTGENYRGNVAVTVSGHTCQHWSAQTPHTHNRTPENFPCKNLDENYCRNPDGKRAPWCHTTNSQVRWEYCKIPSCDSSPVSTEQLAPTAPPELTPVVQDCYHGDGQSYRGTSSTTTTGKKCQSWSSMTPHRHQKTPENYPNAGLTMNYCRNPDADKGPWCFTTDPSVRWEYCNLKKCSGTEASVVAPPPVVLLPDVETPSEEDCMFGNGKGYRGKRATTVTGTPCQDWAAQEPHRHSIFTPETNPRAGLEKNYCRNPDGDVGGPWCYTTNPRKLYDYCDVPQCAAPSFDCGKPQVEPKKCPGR
T4 sequence (P49862 30-253): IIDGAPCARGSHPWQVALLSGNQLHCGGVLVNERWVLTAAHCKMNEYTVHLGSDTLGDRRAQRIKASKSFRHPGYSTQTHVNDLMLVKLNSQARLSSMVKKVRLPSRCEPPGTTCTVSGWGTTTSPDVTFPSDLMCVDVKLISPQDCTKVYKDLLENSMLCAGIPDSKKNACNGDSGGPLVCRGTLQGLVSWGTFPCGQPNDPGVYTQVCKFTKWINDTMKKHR

## CC[C@H](C)[C@@H]1NC(=O)[C@H](CO)NC(=O)[C@H](CCCNC(=N)N)NC(=O)[C@H]([C@@H](C)O)NC(=O)[C@@H]2CSSC[C@H](NC(=O)[C@H](Cc3c[nH]cn3)NC(=O)[C@@H]3CCCN3C(=O)[C@@H]3CCCN3C1=O)C(=O)N[C@@H](Cc1c[nH]c3ccccc13)C(=O)N1CCC[C@H]1C(=O)N[C@@H](CC(=O)O)C(=O)NCC(=O)N[C@@H](CCCNC(=N)N)C(=O)N2 [Analogue 6] (cyclo(CTRSIPPHCWPDGR); disulfide 1-9)
[1]
  IC50: 0.381 ± 0.012 µM
Human Plasma Plasmin
  IC50: 0.407 ± 0.008 µM
KLK5
  Kd: 0.02 µM
  ΔG: -43.97 kJ/mol
  Ka: 5.0E7±1.2E7
KLK5; ITC Kd
  increase in binding affinity for KLK5 from I10H: around 25 times
KLK5; 1xPBS pH 8.0, 25°C
  Stoichiometry (N): 1.01±0.01
  ΔH: 8.427 ± 0.0711 kJ/mol
  ΔS: 42.0 cal mol^-1 kelvin^-1
KLK7
  IC50: 0.534 ± 0.029 µM

## CC[C@H](C)[C@@H]1NC(=O)[C@H](CO)NC(=O)[C@H](CCCCN)NC(=O)[C@H]([C@@H](C)O)NC(=O)[C@@H]2CSSC[C@H](NC(=O)[C@H](Cc3c[nH]cn3)NC(=O)[C@@H]3CCCN3C(=O)[C@@H]3CCCN3C1=O)C(=O)N[C@@H](Cc1c[nH]c3ccccc13)C(=O)N1CCC[C@H]1C(=O)N[C@@H](CC(=O)O)C(=O)NCC(=O)N[C@@H](CCCNC(=N)N)C(=O)N2 [Analogue 2] (cyclo(CTKSIPPHCWPDGR); disulfide 1-9)
[1]
  IC50: 0.206 ± 0.01 µM
Human Plasma Plasmin
  IC50: 0.025 ± 0.001 µM
KLK5
  Kd: 0.096 µM
  ΔG: -40.08 kJ/mol
  Ka: 1.0E7±1.8E6
KLK5; 1xPBS pH 8.0, 25°C
  Stoichiometry (N): 1.01±0.01
  ΔH: 17.56 ± 0.272 kJ/mol
  ΔS: 46.2 cal mol^-1 kelvin^-1
KLK7
  inhibition at 11 µM: 28%

## CC[C@H](C)[C@@H]1NC(=O)[C@H](CO)NC(=O)[C@H](CCCCN)NC(=O)[C@H]([C@@H](C)O)NC(=O)[C@@H]2CSSC[C@H](NC(=O)[C@H](Cc3c[nH]cn3)NC(=O)[C@@H]3CCCN3C(=O)[C@@H]3CCCN3C1=O)C(=O)N[C@@H](Cc1ccccc1)C(=O)N1CCC[C@H]1C(=O)N[C@@H](CC(=O)O)C(=O)NCC(=O)N[C@@H](CCCNC(=N)N)C(=O)N2 [Analogue I10H] (cyclo(CFPDGRCTKSIPPH); disulfide 1-7)
[1]; enzyme 10 nM, Boc-VPR-AMC 21 μM, 25°C, 15 minutes
  IC50: 2.24 ± 0.567 µM
Human Plasma Plasmin; [2]
  IC50: 0.161 ± 0.006 µM
KLK5; 1xPBS pH 8.0, 25°C, read-out: ITC Kd
  Kd: 0.485 µM
KLK5; 1xPBS pH 8.0, 25°C
  Stoichiometry (N): 1.06±0.02
  ΔH: 8.213 ± 0.213 kJ/mol
  ΔS: 35.5 cal mol^-1 kelvin^-1
KLK5
  ΔG: -36.07 kJ/mol
  Ka: 2.1E6±5.6E5
KLK7; [3]
  inhibition at 11 µM: 0%

## CC[C@H](C)[C@@H]1NC(=O)[C@@H]2CCCN2C(=O)[C@@H]2CCCN2C(=O)[C@H]([C@@H](C)CC)NC(=O)[C@H](CO)NC(=O)[C@H](CCCCN)NC(=O)[C@H]([C@@H](C)O)NC(=O)[C@@H]2CSSC[C@H](NC1=O)C(=O)N[C@@H](Cc1ccccc1)C(=O)N1CCC[C@H]1C(=O)N[C@@H](CC(=O)O)C(=O)NCC(=O)N[C@@H](CCCNC(=N)N)C(=O)N2 [Native SFTI, Sunflower Trypsin Inhibitor 1, reference compound]
[1]
  IC50: 1.25 ± 0.057 µM
Human Plasma Plasmin; [2]
  IC50: 0.024 ± 0.004 µM
KLK7; [3]
  inhibition at 11 µM: 18%
